# Results taken from patent US12544382B2, “2, 4, 6-tri-substituted pyrimidine compound as ATR kinase inhibitor” (BEIJING TIDE PHARMACEUTICAL CO., LTD., priority 2019, dated 2026).
# Biological target: ATR kinase (Homo sapiens (Human), UniProt Q13535)
# Assay: ATR kinase activity assay (time-resolved fluorescence, p53 substrate phosphorylation)
# Type: biochemical
# Experimental: Biotinylated protein derived from p53 (Eurofins, art. No.: 14-952) was phosphorylated with ATR kinase. The amount of phosphorylated protein was determined by time-resolved fluorescence in this assay. The amount of phosphorylated protein was detected by anti-p53-phospho-(serine 15)-K-specific antibody (Cisbio, art. No.: 61GSTDLA) and d2 labeled anti-GST antibody (Cisbio, art. No. 61P08KAE). Before the experiment, the following working solution was prepared as required: 1× reaction buffer (20 mM HEPES PH8.0, 1% glycerol, 0.01% Brij-35), dilution buffer (20 mM HEPES PH8.0, 1% glycerol, 0.01% Brij-35, 5 mM DTT and 1% BSA), stop solution (20 mM HEPES PH8.0, 1% glycerol, 0.01% Brij-35, 250 mM EDTA), detection buffer (50 mM HEPES pH7.0, 150 mM NaCl, 267 mM KF, 0.1% sodium cholate, 0.01% Tween-20, 0.0125% sodium azide). The reagents used above are purchased from Sigma or Invitrogen, except for those where the manufacturer was mentioned.
# Operations are as follows:
# 4× gradient dilution of compound solutions was prepared with 1× reaction buffer to obtain 9 compound solutions of different concentrations, and 2.5 μL 4× gradient dilution of compound solutions was added to a 384-well analysis plate (784075, Greiner). 4× p53 substrate working solution (40 nM) was prepared with 1× reaction buffer, and 2.5 μL 4× p53 substrate working solution was added to the 384-well analysis plate. 4×ATR/ATRIP working solution (12.8 ng/μL) was prepared with dilution buffer, and 2.5 μL 4×pATR/ATRIP working solution was added to the 384-well analysis plate. 4×ATP working solution (2 mM) was prepared with deionized water, 2.5 μL 4×ATP working solution was added to the 384-well analysis plate, and incubated at room temperature in dark for 30 minutes. 5 μL stop solution was added to the 384 analysis plate. Finally, 5 μL test mixture (0.084 ng/μL Anti-phospho-p53(ser15)-K and 5 ng/μL Anti-GST-d2) was added to the 384 well analysis plate, incubated overnight at room temperature, and the fluorescence signal was detected with ENVISION (Perkinelmer) instrument (excitation wavelength: 320 nm, emission wavelength: 665 nm and 615 nm). The inhibition rate in each well was calculated by the fluorescence intensity value of each hole: ER (Emission Ratio)=(Fluorescence intensity at 665 nm/Fluorescence intensity at 615 nm); inhibition rate=(ER positive-ER test compound)/(ER positive-ER negative)×100%, the IC50 value of compounds were calculated by standard parameter fitting software (GraphPad Prism 6.0).
# ATR kinase, sequence (Q13535 whole entry): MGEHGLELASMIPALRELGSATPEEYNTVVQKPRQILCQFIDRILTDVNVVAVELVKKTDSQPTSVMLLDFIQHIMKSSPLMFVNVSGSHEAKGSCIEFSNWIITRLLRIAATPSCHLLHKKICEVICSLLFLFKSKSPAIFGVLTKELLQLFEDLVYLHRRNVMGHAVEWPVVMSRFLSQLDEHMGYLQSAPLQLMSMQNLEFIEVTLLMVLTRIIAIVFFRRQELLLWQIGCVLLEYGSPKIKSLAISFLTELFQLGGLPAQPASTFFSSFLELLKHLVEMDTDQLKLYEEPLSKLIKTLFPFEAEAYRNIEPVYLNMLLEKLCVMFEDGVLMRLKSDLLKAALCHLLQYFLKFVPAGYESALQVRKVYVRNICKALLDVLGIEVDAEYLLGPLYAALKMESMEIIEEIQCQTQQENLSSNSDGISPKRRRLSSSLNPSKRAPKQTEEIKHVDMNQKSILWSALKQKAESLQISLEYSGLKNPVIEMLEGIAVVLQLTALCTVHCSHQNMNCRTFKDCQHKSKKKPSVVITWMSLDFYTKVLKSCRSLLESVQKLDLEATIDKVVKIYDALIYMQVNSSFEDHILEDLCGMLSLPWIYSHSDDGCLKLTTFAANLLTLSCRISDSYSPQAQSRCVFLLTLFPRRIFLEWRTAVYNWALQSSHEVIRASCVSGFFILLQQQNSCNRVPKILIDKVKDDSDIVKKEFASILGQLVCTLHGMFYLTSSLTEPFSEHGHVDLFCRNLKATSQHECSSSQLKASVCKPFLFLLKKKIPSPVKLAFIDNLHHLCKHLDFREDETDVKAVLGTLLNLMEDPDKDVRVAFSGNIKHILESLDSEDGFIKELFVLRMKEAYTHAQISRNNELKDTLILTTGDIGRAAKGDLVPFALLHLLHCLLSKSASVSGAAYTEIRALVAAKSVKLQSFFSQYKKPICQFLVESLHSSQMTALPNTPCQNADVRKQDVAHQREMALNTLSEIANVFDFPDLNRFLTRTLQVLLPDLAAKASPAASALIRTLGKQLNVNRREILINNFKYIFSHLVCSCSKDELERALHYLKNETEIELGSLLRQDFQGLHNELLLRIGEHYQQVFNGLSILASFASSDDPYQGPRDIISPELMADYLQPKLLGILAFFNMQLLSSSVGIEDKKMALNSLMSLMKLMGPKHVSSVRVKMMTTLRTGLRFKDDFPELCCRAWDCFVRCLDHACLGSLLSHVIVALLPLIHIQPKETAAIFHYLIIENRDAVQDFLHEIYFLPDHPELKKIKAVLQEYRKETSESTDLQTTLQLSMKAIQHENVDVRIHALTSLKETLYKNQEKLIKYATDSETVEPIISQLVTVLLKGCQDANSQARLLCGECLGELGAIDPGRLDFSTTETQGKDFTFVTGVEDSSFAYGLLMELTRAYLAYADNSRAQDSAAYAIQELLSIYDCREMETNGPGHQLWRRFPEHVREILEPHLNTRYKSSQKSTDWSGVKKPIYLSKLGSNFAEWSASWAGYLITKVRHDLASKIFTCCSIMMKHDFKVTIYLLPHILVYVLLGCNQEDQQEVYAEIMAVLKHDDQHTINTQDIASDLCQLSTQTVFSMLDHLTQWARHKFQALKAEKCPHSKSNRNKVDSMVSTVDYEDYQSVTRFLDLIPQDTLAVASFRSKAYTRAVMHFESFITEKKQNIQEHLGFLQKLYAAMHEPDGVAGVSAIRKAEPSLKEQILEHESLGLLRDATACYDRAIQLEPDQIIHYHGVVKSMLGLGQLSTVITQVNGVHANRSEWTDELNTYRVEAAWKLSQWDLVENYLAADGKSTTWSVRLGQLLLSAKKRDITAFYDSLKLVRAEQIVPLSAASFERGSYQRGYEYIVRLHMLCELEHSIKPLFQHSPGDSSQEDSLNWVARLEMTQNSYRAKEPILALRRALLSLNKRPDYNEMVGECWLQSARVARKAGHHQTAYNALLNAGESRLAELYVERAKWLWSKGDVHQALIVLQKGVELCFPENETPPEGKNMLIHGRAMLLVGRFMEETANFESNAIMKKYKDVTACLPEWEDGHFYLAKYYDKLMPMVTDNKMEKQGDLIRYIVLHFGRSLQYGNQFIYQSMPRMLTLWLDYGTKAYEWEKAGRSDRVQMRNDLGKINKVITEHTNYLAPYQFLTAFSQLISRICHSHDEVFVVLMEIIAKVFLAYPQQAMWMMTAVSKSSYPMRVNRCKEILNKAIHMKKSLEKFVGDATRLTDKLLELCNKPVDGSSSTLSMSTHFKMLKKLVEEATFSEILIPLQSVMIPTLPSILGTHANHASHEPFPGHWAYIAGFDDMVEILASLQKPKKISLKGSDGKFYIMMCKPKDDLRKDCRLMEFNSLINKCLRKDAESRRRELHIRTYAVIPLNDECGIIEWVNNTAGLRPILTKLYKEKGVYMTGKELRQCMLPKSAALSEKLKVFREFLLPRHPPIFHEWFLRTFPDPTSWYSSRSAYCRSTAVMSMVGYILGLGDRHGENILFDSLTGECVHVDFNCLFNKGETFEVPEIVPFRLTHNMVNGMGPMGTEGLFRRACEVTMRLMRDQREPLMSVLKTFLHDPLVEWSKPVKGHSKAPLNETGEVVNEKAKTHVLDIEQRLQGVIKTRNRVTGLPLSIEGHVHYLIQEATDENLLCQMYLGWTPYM
# ATR kinase, sequence (Q8WXE1 whole entry partner): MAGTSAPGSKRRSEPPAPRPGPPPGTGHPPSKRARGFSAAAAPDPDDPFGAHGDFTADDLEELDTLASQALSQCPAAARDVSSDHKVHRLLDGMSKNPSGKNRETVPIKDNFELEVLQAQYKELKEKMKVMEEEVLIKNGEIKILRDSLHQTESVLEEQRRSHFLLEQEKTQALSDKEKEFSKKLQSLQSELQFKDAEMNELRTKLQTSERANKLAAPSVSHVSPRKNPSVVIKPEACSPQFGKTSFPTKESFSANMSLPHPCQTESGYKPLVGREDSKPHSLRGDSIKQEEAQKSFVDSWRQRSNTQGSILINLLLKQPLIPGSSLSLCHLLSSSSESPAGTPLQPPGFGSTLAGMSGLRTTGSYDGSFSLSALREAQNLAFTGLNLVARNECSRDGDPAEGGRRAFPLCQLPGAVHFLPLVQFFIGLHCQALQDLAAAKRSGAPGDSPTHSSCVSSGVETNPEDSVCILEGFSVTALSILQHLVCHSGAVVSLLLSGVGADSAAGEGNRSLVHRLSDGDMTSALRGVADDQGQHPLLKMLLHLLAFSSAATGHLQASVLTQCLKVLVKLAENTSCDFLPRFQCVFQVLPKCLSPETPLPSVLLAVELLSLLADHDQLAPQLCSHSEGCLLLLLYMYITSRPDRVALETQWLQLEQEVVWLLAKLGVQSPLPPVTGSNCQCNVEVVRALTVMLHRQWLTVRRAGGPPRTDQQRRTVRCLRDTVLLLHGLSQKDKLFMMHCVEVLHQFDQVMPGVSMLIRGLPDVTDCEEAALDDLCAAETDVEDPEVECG
row,Compound,IC50 [nM]
1,Cc1ccc(S(C)(=O)=O)cc1-c1cc(N2CCOC[C@H]2C)nc(-c2ccnc3[nH]ccc23)n1 [Compound A9],31
2,CCN1CCC(n2nc(C)c(-c3cc(N4CCOC[C@H]4C)nc(-c4ccnc5[nH]ccc45)n3)c2C)CC1 [Compound A20],98
3,CCN(C)S(=O)(=O)c1ccc(OC)c(-c2cc(N3CCOC[C@H]3C)nc(-c3ccnc4[nH]ccc34)n2)c1 [Compound A30],110
4,Cc1nn(C2CCN(C)CC2)c(C)c1-c1cc(N2CCOC[C@H]2C)nc(-c2ccnc3[nH]ccc23)n1 [Compound A37],37
5,COc1ccc(S(=O)(=O)C(C)C)cc1-c1cc(N2CCOC[C@H]2C)nc(-c2ccnc3[nH]ccc23)n1 [Compound A13],66
6,Cc1ccc(S(=O)(=O)NCCCO)cc1-c1cc(N2CCOC[C@H]2C)nc(-c2ccnc3[nH]ccc23)n1 [Compound A40],50
7,CCN1CCN(S(=O)(=O)c2ccc(C)c(-c3cc(N4CCOC[C@H]4C)nc(-c4ccnc5[nH]ccc45)n3)c2)CC1 [Compound A35],63
8,CC(C)S(=O)(=O)c1ccc(C(F)(F)F)c(-c2cc(N3CCOC[C@H]3C)nc(-c3ccnc4[nH]ccc34)n2)c1 [Compound A29],631
9,Cc1ccc(S(=O)(=O)N(C)CCN(C)C)cc1-c1cc(N2CCOC[C@H]2C)nc(-c2ccnc3[nH]ccc23)n1 [Compound A34],282
10,Cc1nn(C2CCN(S(C)(=O)=O)C2)c(C)c1-c1cc(N2CCOC[C@H]2C)nc(-c2ccnc3[nH]ccc23)n1 (stereo partly drawn) [Compound A23],14
11,Cc1nn(CCCN(C)C)c(C)c1-c1cc(N2CCOC[C@H]2C)nc(-c2ccnc3[nH]ccc23)n1 [Compound A22],81
12,CCNC(=O)Nc1ccc(-c2nc(-c3c(C)nn(C)c3C)cc(N3CCOC[C@H]3C)n2)cc1 [Compound A26],2170
13,Cc1nn(CC(C)(C)O)c(C)c1-c1cc(N2CCOC[C@H]2C)nc(-c2ccnc3[nH]ccc23)n1 [Compound A12],44
14,COCCn1nc(C)c(-c2cc(N3CCOC[C@H]3C)nc(-c3ccnc4[nH]ccc34)n2)c1C [Compound A14],571
15,Cc1nn(C(C)C)c(C)c1-c1cc(N2CCOC[C@H]2C)nc(-c2ccnc3[nH]ccc23)n1 [Compound A15],21
16,Cc1nn(C2CCCN(C)C2)c(C)c1-c1cc(N2CCOC[C@H]2C)nc(-c2ccnc3[nH]ccc23)n1 (stereo partly drawn) [Compound A32],27
17,Cc1nn(CS(C)(=O)=O)c(C)c1-c1cc(N2CCOC[C@H]2C)nc(-c2ccnc3[nH]ccc23)n1 [Compound A41],11

row,Compound,IC50 [nM]
1,Cc1nn(CCN(C)C)c(C)c1-c1cc(N2CCOC[C@H]2C)nc(-c2ccnc3[nH]ccc23)n1 [Compound A21],56
2,Cc1nn(C2CCOCC2)c(C)c1-c1cc(N2CCOC[C@H]2C)nc(-c2ccnc3[nH]ccc23)n1 [Compound A24],57
3,Cc1ccc(S(=O)(=O)C2CCN(C)CC2)cc1-c1cc(N2CCOC[C@H]2C)nc(-c2ccnc3[nH]ccc23)n1 [Compound A36],91
4,Cc1nn(C2CCNCC2)c(C)c1-c1cc(N2CCOC[C@H]2C)nc(-c2ccnc3[nH]ccc23)n1 [Compound A16],4
5,C[C@@H]1COCCN1c1cc(-c2cccc(S(C)(=O)=O)c2)nc(-c2ccnc3[nH]ccc23)n1 [Compound A4],179
6,Cc1nn(CC2COC2)c(C)c1-c1cc(N2CCOC[C@H]2C)nc(-c2ccnc3[nH]ccc23)n1 [Compound A19],18
7,Cc1nn(CC2CNC2)c(C)c1-c1cc(N2CCOC[C@H]2C)nc(-c2ccnc3[nH]ccc23)n1 [Compound A18],47
8,Cc1ccc(S(=O)(=O)C(C)C)cc1-c1cc(N2CCOC[C@H]2C)nc(-c2ccnc3[nH]ccc23)n1 [Compound A39],121
9,Cc1nn(CC2CCOC2)c(C)c1-c1cc(N2CCOC[C@H]2C)nc(-c2ccnc3[nH]ccc23)n1 (stereo partly drawn) [Compound A28],25
10,Cc1c(-c2cc(N3CCOC[C@H]3C)nc(-c3ccnc4[nH]ccc34)n2)c(C(F)(F)F)nn1C [Compound A8],21
11,C[C@@H]1COCCN1c1cc(-c2ccc(S(C)(=O)=O)cc2)nc(-c2ccnc3[nH]ccc23)n1 [Compound A5],> 10000
12,Cc1ccc(S(=O)(=O)N(C)C)cc1-c1cc(N2CCOC[C@H]2C)nc(-c2ccnc3[nH]ccc23)n1 [Compound A10],25
13,CCN1CCC(n2nc(C)c(-c3cc(N4CCOC[C@H]4C)nc(-c4ccnc5[nH]ccc45)n3)c2C)C1 (stereo partly drawn) [Compound A31],48
14,CCN(C)S(=O)(=O)c1ccc(C(C)C)c(-c2cc(N3CCOC[C@H]3C)nc(-c3ccnc4[nH]ccc34)n2)c1 [Compound A33],936
15,C[C@@H]1COCCN1c1cc(-c2ccnn2C2CCCCC2)nc(-c2ccnc3[nH]ccc23)n1 [Compound A17],2270
16,Cc1nn(CC2CCCN(C)C2)c(C)c1-c1cc(N2CCOC[C@H]2C)nc(-c2ccnc3[nH]ccc23)n1 (stereo partly drawn) [Compound A38],30
17,Cc1nn(CCCO)c(C)c1-c1cc(N2CCOC[C@H]2C)nc(-c2ccnc3[nH]ccc23)n1 [Compound A11],15

# The remaining lines, values ahead:
row,IC50 [nM],Compound
1,1770,Cc1nn(C2CCNCC2)c(C(F)(F)F)c1-c1cc(N2CCOC[C@H]2C)nc(-n2c(CO)nc3cc(F)ccc32)n1 [Compound D32]
2,73,CNc1nc2ccc(F)cc2n1-c1nc(-c2c(C(F)(F)F)nn(C3CCCNC3)c2C)cc(N2CCOC[C@@H]2C)n1 (stereo partly drawn) [Compound D34]
3,255,Cc1nn(C)c(C)c1-c1nc(-c2ccnc3[nH]ccc23)cc(N2CCOC[C@H]2C)n1 [Compound B1]
4,> 10000,C[C@@H]1COCCN1c1cc(-c2ccnc3[nH]ccc23)nc(-c2ccc(S(C)(=O)=O)cc2)n1 [Compound B3]
5,979,Cc1nn(C(C)C)c(C)c1-c1nc(-c2ccnc3[nH]ccc23)cc(N2CCOC[C@H]2C)n1 [Compound B6]
6,1610,Cc1nn(C)cc1-c1nc(-c2ccnc3[nH]ccc23)cc(N2CCOC[C@H]2C)n1 [Compound B5]
7,41,Cc1nn(C)c(C)c1-c1nc(-c2ccnc3[nH]ccc23)nc(N2CCOC[C@H]2C)n1 [Compound C1]
8,71,CCNC(=O)Nc1nc2ccccc2n1-c1nc(-c2c(C)nn(C3CCNCC3)c2C(F)(F)F)cc(N2CCOC[C@@H]2C)n1 [Compound D37]
9,> 10000,Cc1nn(C)c(C)c1-c1nc(-c2ccnc(C(F)F)c2)cc(N2CCOC[C@H]2C)n1 [Compound B8]
10,1720,Cc1c(-c2nc(-c3ccnc4[nH]ccc34)cc(N3CCOC[C@H]3C)n2)cnn1C [Compound B4]
11,340,Cc1nn(CC2CNC2)c(C)c1-c1nc(-c2ccnc3[nH]ccc23)cc(N2CCOC[C@H]2C)n1 [Compound B7]
12,108,Cc1c(-c2cc(N3CCOC[C@H]3C)nc(-c3ccc(C#N)c4[nH]ccc34)n2)c(C(F)(F)F)nn1C1CCNCC1 [Compound D5]
13,2700,CSc1nc2cc(F)ccc2n1-c1nc(-c2c(C)nn(C3CCNCC3)c2C(F)(F)F)cc(N2CCOC[C@H]2C)n1 [Compound D31]
14,4300,C[C@@H]1COCCN1c1cc(-c2ccnc3[nH]ccc23)nc(-c2cccc(S(C)(=O)=O)c2)n1 [Compound B2]
